One assay deals with T1, Human M4 (Homo sapiens, UniProt P08173).
T1 construct: expressed in transfected cells; host or cells: CHO-K1 (ATCC), co-transfected with chimeric G protein Gqi5
T1 sequence (P08173 1-479): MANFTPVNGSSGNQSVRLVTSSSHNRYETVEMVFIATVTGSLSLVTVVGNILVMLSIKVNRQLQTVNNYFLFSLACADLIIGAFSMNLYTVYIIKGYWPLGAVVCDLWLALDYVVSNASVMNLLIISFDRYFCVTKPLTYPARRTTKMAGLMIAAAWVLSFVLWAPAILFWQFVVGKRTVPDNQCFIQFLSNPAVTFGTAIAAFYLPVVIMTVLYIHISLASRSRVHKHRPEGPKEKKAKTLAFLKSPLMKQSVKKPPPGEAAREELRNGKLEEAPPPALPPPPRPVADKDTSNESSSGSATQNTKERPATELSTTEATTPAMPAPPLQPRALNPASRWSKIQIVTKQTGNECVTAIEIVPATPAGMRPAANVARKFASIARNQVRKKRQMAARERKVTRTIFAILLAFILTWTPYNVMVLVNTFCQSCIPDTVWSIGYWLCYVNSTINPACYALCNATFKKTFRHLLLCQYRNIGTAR
The assay is described as follows: mAChR M4 cell-based functional assay (calcium flux, human M4/Gqi5/CHO cells). Conditions: for remaining activity at 30 µM: CHO, % ACh maximum at 30 μM, read-out: Emin (%) human M4; for IC50: antagonist mode, decrease of the response to an EC80 concentration of acetylcholine, CHO-K1 cells with Gqi5. As for the experimental part: (§1) Human or rat M4 cDNA, along with the chimeric G protein Gqi5, were transfected into Chinese hamster ovary (CHO-K1) cells purchased from the American Type Culture Collection using Lipofectamine2000. M4/Gqi5/CHO cells were grown in Ham's F-12 medium containing 10% heat-inactivated fetal bovine serum (FBS), 20 mM HEPES, 500 μg/mL G418 sulfate, and 200 μg/mL Hygromycin B.
(§2) For high throughput measurement of agonist-evoked increases in intracellular calcium, CHO-K1 cells stably expressing muscarinic receptors were plated in growth medium lacking G418 and hygromycin at 15,000 cells/20 μL/well in Greiner 384-well black-walled, tissue culture (TC)-treated, clear-bottom plates (VWR). Cells were incubated overnight at 37° C. and 5% CO2. The next day, cells were washed using an ELX 405 (BioTek) with assay buffer; the final volume was then aspirated to 20 μL. Next, 20 μL of a 2.3 μM stock of Fluo-4/acetoxymethyl ester (Invitrogen, Carlsbad, Calif.), prepared as a 2.3 mM stock in DMSO and mixed in a 1:1 ratio with 10% (w/v) Pluronic F-127 and diluted in assay buffer, was added to the wells and the cell plates were incubated for 50 min at 37° C. and 5% CO2. Dye was removed by washing with the ELX 405 and the final volume was aspirated to 20 μL. Compound master plates were formatted in a 10 point concentration-response curve (CRC) format (1:3 dilutions) in 100% DMSO with a starting concentration of 10 or 1 mM using a BRAVO liquid handler (Agilent). Test compound CRCs were then transferred to daughter plates (240 nL) using the Echo acoustic plate reformatter (Labcyte, Sunnyvale, Calif.) and then diluted into assay buffer (40 μL) to a 2× stock using a Thermo Fisher Combi (Thermo Fisher Scientific, Waltham, Mass.).
(§3) Calcium flux was measured using the Functional Drug Screening System (FDSS) 6000 or 7000 (Hamamatsu Corporation, Tokyo, Japan) as an increase in the fluorescent static ratio. Compounds were applied to cells (20 μL, 2×) using the automated system of the FDSS at 2 seconds into the protocol and the data were collected at 1 Hz. At 143 s, 10 μL of an EC20 concentration of the muscarinic receptor agonist acetylcholine was added (5×), followed by the addition of 12 μL of an EC80 concentration of acetylcholine at the 268 s time point (5×). Agonist activity was analyzed as a concentration-dependent increase in calcium mobilization upon compound addition. Positive allosteric modulator activity was analyzed as a concentration-dependent increase in the EC20 acetylcholine response. Antagonist activity was analyzed as a concentration-dependent decrease in the EC80 acetylcholine response for the purposes of the tables herein, an IC50 (inhibitory concentration 50) was calculated as a concentration-dependent decrease of the response elicited by an EC80 concentration of acetylcholine, Concentration-response curves were generated using a four-parameter logistical equation in XLFit curve fitting software (IDBS, Bridgewater, N.J.) for Excel (Microsoft, Redmond, Wash.) or Prism (GraphPad Software, Inc., San Diego, Calif.) or the Dotmatics software platform (Dotmatics, Bishop's Stortford, UK).
(§4) Compounds were synthesized as described above. Activity (IC50 and Emin) was determined in the mAChR M4 cell-based functional assay as described above and the data are shown in Table 2. The compound number corresponds to the compound numbers used in Examples 1-3.
In general terms: Calcium flux is commonly read through the fluorescence of an indicator in the cells.

The next assay addresses T2, Rat M4 (Rattus norvegicus, UniProt P08485).
T2 construct: expressed in transfected cells; host or cells: CHO-K1 (ATCC), co-transfected with chimeric G protein Gqi5
T2 sequence (P08485 1-478): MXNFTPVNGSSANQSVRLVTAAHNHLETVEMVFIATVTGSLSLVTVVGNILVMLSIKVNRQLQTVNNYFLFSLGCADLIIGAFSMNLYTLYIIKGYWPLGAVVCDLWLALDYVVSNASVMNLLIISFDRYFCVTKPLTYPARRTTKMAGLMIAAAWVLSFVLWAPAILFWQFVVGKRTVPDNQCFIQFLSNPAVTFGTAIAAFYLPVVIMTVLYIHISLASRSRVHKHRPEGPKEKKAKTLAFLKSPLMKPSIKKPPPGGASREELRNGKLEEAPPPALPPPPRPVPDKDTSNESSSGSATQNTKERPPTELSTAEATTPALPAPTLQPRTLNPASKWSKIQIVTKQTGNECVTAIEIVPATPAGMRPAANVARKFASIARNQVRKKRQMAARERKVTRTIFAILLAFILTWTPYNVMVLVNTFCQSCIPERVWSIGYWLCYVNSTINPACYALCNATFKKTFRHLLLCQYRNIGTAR
Put plainly: mAChR M4 cell-based functional assay (calcium flux, rat M4/Gqi5/CHO cells). Conditions: for remaining activity at 30 µM: CHO, % ACh maximum at 30 μM, read-out: Emin (%) rat M4; for IC50: antagonist mode, decrease of the response to an EC80 concentration of acetylcholine, CHO-K1 cells with Gqi5. As for the experimental part: as §1, §2, §3, §4

Another assay concerns locomotor activity. Conditions: M4 knockout mice, but not the other four mAChR subtypes; cited from earlier work.
In assay [1] the test system is catalepsy induced by the DA receptor antagonist haloperidol. The assay is described as follows: haloperidol-induced catalepsy. In kind it is in vivo, mice. An excerpt: Furthermore, haloperidol-induced catalepsy, a model of parkinsonian motor disability, is reduced in M4 knockout mice as compared to wild-type controls. […] The reversal by scopolamine was uncommonly robust and more pronounced than we observe with agents targeting a number of other targets being evaluated for potential antiparkinsonian effects, including metabotropic glutamate (mGlu) receptors mGlu4 or mGlu5, A2A adenosine receptors, and NMDA receptors. […] Taken together with the extensive studies of M4 modulation of basal ganglia and motor function, these studies provide compelling evidence that M4 is the dominant mAChR subtype involved in the antiparkinsonian effects of non-selective mAChR antagonists and provide support for discovery and development of selective M4 antagonists for treatment of neurodegenerative disease such as PD, dystonia, tardive dyskinesia and other movement disorders.

As to `Cc1nn(C)cc1-c1ccc(N2CCC3CN(CC45CC6CC(CC(C6)C4)C5)CC32)nn1` (centres unmarked) [Compound 16, 5-(adamantan-1-ylmethyl)-1-(6-(1,3-dimethyl-1H-pyrazol-4-yl)pyridazin-3-yl)octahydropyrrolo[3,4-b]pyrrole], the remaining activity at 30 µM at Human M4 was 4.02%; on Rat M4, 4.09%. The IC50 (in general, the concentration needed to halve the response being measured) at Human M4 worked out at 191 nM; at Rat M4, 753 nM.
As to `Fc1ccc(Cl)c(-c2ccc(N3CCC4CN(CC56CC7CC(CC(C7)C5)C6)CC43)nn2)c1` (centres unmarked) [Compound 17, 5-(adamantan-1-ylmethyl)-1-(6-(2-chloro-5-fluorophenyl)pyridazin-3-yl)octahydropyrrolo[3,4-b]pyrrole], on Human M4, the remaining activity at 30 µM is 20.2% and the IC50 is above 10000 nM. At Rat M4, the remaining activity at 30 µM amounted to 49.1% and the IC50 is above 10000 nM.
`Fc1ccc(-c2ccc(N3CCC4CN(CC56CC7CC(CC(C7)C5)C6)CC43)nn2)c(Cl)c1` (centres unmarked) [Compound 18, 5-(adamantan-1-ylmethyl)-1-(6-(2-chloro-4-fluorophenyl)pyridazin-3-yl)octahydropyrrolo[3,4-b]pyrrole]: on Human M4, the remaining activity at 30 µM came out at 12% and the IC50 is above 10000 nM. On Rat M4, the remaining activity at 30 µM came to 36.4% and the IC50 is above 10000 nM.
With `Cc1nn(C)c(C)c1-c1ccc(N2CCC3CN(CC45CC6CC(CC(C6)C4)C5)CC32)nn1` (centres unmarked) [Compound 19, 5-(adamantan-1-ylmethyl)-1-(6-(1,3,5-trimethyl-1H-pyrazol-4-yl)pyridazin-3-yl)octahydropyrrolo[3,4-b]pyrrole], the figures for the remaining activity at 30 µM at Human M4 and at Rat M4 were 3.18% and 4.41%, respectively. In addition, the values for the IC50 on Human M4 and on Rat M4 were 129 nM and 365 nM, respectively.
In the same order, the values of `Cc1cnn(C)c1-c1ccc(N2CCC3CN(CCC(C)(C)C)CC32)nn1` (centres unmarked) [Compound 20, 1-(6-(1,4-dimethyl-1H-pyrazol-5-yl)pyridazin-3-yl)-5-(3,3-dimethylbutyl)octahydropyrrolo[3,4-b]pyrrole] are 8.8%, 22.7%, 2220 nM and above 10000 nM.
For the compound `Cc1cnn(C)c1-c1ccc(N2CC[C@@H]3CN(CC45CC6CC(CC(C6)C4)C5)C[C@@H]32)nn1` [Compound 21, (3aR,6aR)-5-(adamantan-1-ylmethyl)-1-(6-(1,4-dimethyl-1H-pyrazol-5-yl)pyridazin-3-yl)octahydropyrrolo[3,4-b]pyrrole], at Human M4, the remaining activity at 30 µM was determined as 4.08% and the IC50 amounted to 147 nM. Moreover, on Rat M4, the remaining activity at 30 µM stood at 3.71% and the IC50 amounted to 601 nM.
Take `Cc1cnn(C)c1-c1ccc(N2CCC3CN(CC4CCOCC4)CC32)nn1` (centres unmarked) [Compound 22, 1-(6-(1,4-dimethyl-1H-pyrazol-5-yl)pyridazin-3-yl)-5-((tetrahydro-2H-pyran-4-yl)methyl)octahydropyrrolo[3,4-b]pyrrole]: on Human M4, the remaining activity at 30 µM was determined as 36.1% and the IC50 was above 10000 nM. At Rat M4, the remaining activity at 30 µM was 69.7% and the IC50 was above 10000 nM.
Regarding `Cc1cnn(C)c1-c1ccc(N2CC[C@H]3CN(CC45CC6CC(CC(C6)C4)C5)C[C@H]32)nn1` [Compound 23, (3aS,6aS)-5-(adamantan-1-ylmethyl)-1-(6-(1,4-dimethyl-1H-pyrazol-5-yl)pyridazin-3-yl)octahydropyrrolo[3,4-b]pyrrole], on Human M4, the remaining activity at 30 µM was determined as 3.91% and the concentration for half-maximal inhibition (IC50) is 102 nM. Besides, at Rat M4, the remaining activity at 30 µM worked out at 4.52% and the IC50 was found to be 326 nM.
Consider `CN1[C@@H]2C[C@@H](OC(=O)[C@H](CO)c3ccccc3)C[C@H]1[C@@H]1O[C@@H]12` [scopolamine], for which the locomotor-activating effects result in the assay on locomotor activity is listed as “dramatically reduced”. In assay [1] (M4 KO mice), the “reduction of haloperidol-induced catalepsy” value is on record as “ineffective in reducing catalepsy”. Besides, in assay [1] (WT mice), the “reversal of haloperidol-induced catalepsy” value is reported as “completely reversed”.

Values taken from patent US11225484B2, “Substituted octahydropyrrolo[3,4-b]pyrroles as antagonists of the muscarinic acetylcholine receptor M4” (Vanderbilt University, priority 2017, dated 2022).
